Among the data in patent US12448373B2, “Azetidinyl-acetamides as CXCR7 inhibitors” (CHEMOCENTRYX, INC., priority 2021, dated 2025) are IC50 values, retold here.

T1 sequence (P25106 whole entry): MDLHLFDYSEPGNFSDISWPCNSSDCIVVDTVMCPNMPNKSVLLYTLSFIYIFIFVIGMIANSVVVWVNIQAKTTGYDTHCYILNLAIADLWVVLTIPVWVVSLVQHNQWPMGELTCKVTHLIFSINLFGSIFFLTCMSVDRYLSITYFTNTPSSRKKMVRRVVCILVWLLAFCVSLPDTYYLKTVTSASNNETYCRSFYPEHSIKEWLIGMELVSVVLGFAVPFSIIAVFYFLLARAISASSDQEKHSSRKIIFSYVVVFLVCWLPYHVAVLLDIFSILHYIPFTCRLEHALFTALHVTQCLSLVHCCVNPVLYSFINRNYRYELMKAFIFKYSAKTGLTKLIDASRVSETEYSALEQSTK

The assay addresses T1, CXCR7 (Homo sapiens, UniProt P25106).
T1 construct: expressed in transfected cells; host or cells: CHO cells (CHO-CXCR7), transgenes maintained with Hygromycin B and G418
Kind of assay: CXCR7 β-arrestin recruitment assay in CHO-CXCR7 cells (ProLink/EA β-galactosidase complementation), induced by human SDF-1a. The class given is cell-based. Conditions: assay buffer, SDF-1a at EC50 concentration. On the procedure: CXCR7 is fused in frame with a small enzyme donor fragment ProLink and co-expressed in CHO cells stably expressing a fusion protein of β-arrestin and the larger, N-terminal deletion mutant of β-galactosidase (called enzyme acceptor or EA). Activation of the CXCR7 stimulates binding of β-arrestin to the ProLink-tagged CXCR7 and forces complementation of the two enzyme fragments, resulting in the formation of an active β-galactosidase enzyme. The β-galactosidase enzyme activity is measured with a substrate that generates fluorescence.
CHO-CXCR7 cells (0.22×10^6/mL) were cultured in growth medium (Ham's F-12 medium with 10% fetal bovine serum (FBS)), Hygromycin B (200 ug/mL) and G418 (250 ug/mL) were used to maintain the transgenes. The day before the assay, the cells were detached from culture dishes with 0.25% trypsin-EDTA (Corning, Catalog No. 25-053-CI), plated into 96 well plate (2.2×10^5 cells/mL, 100 μL/well) and incubated overnight at 37° C. with 5% CO2. On the day of the assay, cell culture medium was removed and 100 uL of assay buffer (PBS or FBS) was added to each well. 1 μL of compound that were serially diluted in DMSO was added to each well. 5 μL of human SDF-la (Pepro Tech, Catalog No. 300-28A, at EC50 concentration pre-determined on the same day) was then added and mixed to induce CXCR7-mediated β-arrestin recruitment. The plates were incubated for 1.5 hours at 37° C. The assay buffer was removed, 100 μL substrate solution was added and the reaction was carried out at 37° C. for 30 minutes. The substrate solution was prepared by mixing 100 mL Phosphate Buffer (1M, Sigma, Catalog No. P3619-1GA), 100 mL 10% Triton X 100 (Sigma, Catalog No. T8787.), 5 mL MgCl2 (1M, Sigma, Catalog No. M1028), 1.5 mL, β-mercaptoethanol (Gibco, Catalog No. 21985-023.). 3-carboxyumbelliferyl β-D-galactopyranoside (ThermoFisher Scientific, Catalo No. F2905) was added at 0.4 mM right before use. The reaction was then stopped by adding 50 μL of Stop Solution (2.1% w/v Na2CO3) to each well. Fluorescence intensity was measured with a FlexStation 3 microplate reader (Molecular Devices) with the following setting—excitation: 360 nm, emission: 465 nm, manual Gain: 55. IC50 values were calculated with GraphPad Prism using 3 parameter nonlinear regression.
On the technique in general: Arrestin recruitment assays detect the binding of arrestin to an activated receptor.
As usually defined, the IC50 is the concentration needed to halve the response being measured. A lower IC50 goes with inhibition by little substance. Take `CC(C)(NC(=O)CC1(NC(=O)c2cc(-c3ccc(F)cc3F)on2)CN(C2CCOCC2)C1)c1cccc(Cl)c1` [Example 1.095]: the IC50 lay within 5 to 100 nM.

As for `CC(C)(NC(=O)CC1(NC(=O)c2cc(-c3ccc(F)cc3F)on2)CN([C@H]2CC[C@@](C)(O)CC2)C1)c1cccc(OC(F)(F)F)c1` [Example 1.197], the concentration for half-maximal inhibition (IC50) was under 5 nM.

Turning to `CC(C)(O)CN1CC(CC(=O)NC(C)(C)c2ccc(F)cc2)(NC(=O)c2cc(-c3ccc(F)cc3F)on2)C1` [Example 1.248], the half-maximal inhibitory concentration (IC50) fell in the range of 100 to 1000 nM.

In turn, `CC(C)(NC(=O)CC1(NC(=O)c2cc(-c3ccc(F)cc3F)on2)CN([C@H]2CC[C@](C)(O)CC2)C1)c1ccccn1` [Example 1.303] gave an IC50 of under 5 nM.

`CC(C)(NC(=O)CC1(NC(=O)c2cc(-c3ccc(F)cc3F)on2)CN([C@H]2CC[C@](C)(O)CC2)C1)c1cc(Cl)ccc1Cl` [Example 1.088] yielded an IC50 of under 5 nM.

Turning to `CC(C)(NC(=O)CC1(NC(=O)c2cc(-c3ccc(F)cc3F)on2)CN(C2CCCCC2)C1)c1ccc(F)cc1` [Example 1.298], the IC50 lay within 5 to 100 nM.

`CC(C)(NC(=O)CC1(NC(=O)c2cc(-c3ccc(F)cc3F)on2)CN([C@H]2CC[C@](C)(O)CC2)C1)c1ncccc1F` [Example 1.021]: the IC50 fell in the range of 5 to 100 nM.

`COc1cc(C(C)(C)NC(=O)CC2(NC(=O)c3cc(-c4ccc(F)cc4F)on3)CN([C@H]3CC[C@](C)(O)CC3)C2)ccn1` [Example 1.189] registered an IC50 of under 5 nM.

Compound `CC(C)(NC(=O)CC1(NC(=O)c2cc(-c3ccc(F)cc3F)on2)CN([C@H]2CC[C@@](C)(O)CC2)C1)c1ccccc1Cl` [Example 1.218] yielded an IC50 of under 5 nM.

`CC(C)(O)CN1CC(CC(=O)NC(C)(C)c2ccc(F)cc2F)(NC(=O)c2cc(-c3ccc(F)cc3F)on2)C1` [Example 1.264] displayed an IC50 of 1000 to 20000 nM.

Turning to `C[C@]1(O)CC[C@@H](N2CC(CC(=O)NCc3cccc(Cl)c3)(NC(=O)c3cc(-c4ccc(F)cc4F)on3)C2)CC1` [Example 1.109], the half-inhibitory concentration (IC50) is 100 to 1000 nM.

On to `CC(C)(NC(=O)CC1(NC(=O)c2nnc(-c3ccc(F)cc3F)s2)CN(C2CCCCC2)C1)c1ccccn1` [Example 1.072], for which the IC50 was under 5 nM.

In turn, `CC(C)(NC(=O)CC1(NC(=O)c2cc(-c3ccc(F)cc3F)on2)CN([C@@H]2CCCCC2(C)C)C1)c1ccccn1` [Example 1.274] showed an IC50 of under 5 nM.

`CC(C)(NC(=O)CC1(NC(=O)c2nnc(-c3ccc(F)cc3F)s2)CN([C@H]2CC[C@](C)(O)CC2)C1)c1cc(Cl)ccc1F` [Example 1.336]: the IC50 is 5 to 100 nM.

Compound `CC(C)(NC(=O)CC1(NC(=O)c2cc(-c3ccc(F)cc3F)on2)CN([C@H]2CC[C@@](C)(O)CC2)C1)c1ccc(F)cc1` [Example 1.259] yielded an IC50 of 5 to 100 nM.

`Cc1cc(C)nc(C(C)(C)NC(=O)CC2(NC(=O)c3cc(-c4ccc(F)cc4F)on3)CN(C3CCOC(C)(C)C3)C2)n1` (stereo not shown) [Example 1.359] came in with an IC50 of 5 to 100 nM.

In the case of `CC(C)(O)CN1CC(CC(=O)NC(C)(C)c2ccc(Cl)cc2)(NC(=O)c2cc(-c3ccc(F)cc3F)on2)C1` [Example 1.138], the IC50 lay in the range of 100 to 1000 nM.

Take `CC(C)(NC(=O)CC1(NC(=O)c2cc(-c3ccc(F)cc3F)on2)CN([C@H]2CC[C@](C)(O)CC2)C1)c1ccc(Cl)cc1` [Example 1.250]: the IC50 lay in the range of 100 to 1000 nM.

`CC(C)(NC(=O)CC1(NC(=O)c2nnc(-c3ccc(F)cc3F)s2)CN(C2CCCCC2)C1)c1cccc(Cl)c1` [Example 1.073]: the half-inhibitory concentration (IC50) is under 5 nM.

For `CC(C)(NC(=O)CC1(NC(=O)c2nnc(-c3ccc(F)cc3F)s2)CN([C@H]2CC[C@@](C)(O)CC2)C1)c1ccccn1` [Example 1.062], the IC50 fell in the range of 5 to 100 nM.

Turning to `CC(C)(NC(=O)CC1(NC(=O)c2cc(-c3ccc(F)cc3F)on2)CN([C@H]2CC[C@](C)(O)CC2)C1)c1cc(F)cc(F)c1` [Example 1.153], the IC50 was under 5 nM.

`CC(C)(NC(=O)CC1(NC(=O)c2cc(-c3ccc(F)cc3F)on2)CN([C@H]2CC[C@](C)(O)CC2)C1)c1cccc(C2CC2)c1` [Example 1.144] yielded an IC50 of 5 to 100 nM.

In turn, `CC(C)(NC(=O)CC1(NC(=O)c2cc(-c3ccc(F)cc3F)on2)CN([C@H]2CC[C@@](C)(O)CC2)C1)c1ncccn1` [Example 1.232] displayed an IC50 of under 5 nM.

`CC(C)(NC(=O)CC1(NC(=O)c2cc(-c3ccc(F)cc3F)n[nH]2)CN([C@H]2CC[C@@](C)(O)CC2)C1)c1cccc(Cl)c1` [Example 1.053] showed an IC50 of 1000 to 20000 nM.

Consider `CC(C)(NC(=O)CC1(NC(=O)c2cc(-c3ccc(F)cc3)on2)CN([C@H]2CC[C@](C)(O)CC2)C1)c1ccccc1` [Example 1.091], for which the IC50 was in the range of 5 to 100 nM.

The compound `C[C@]1(O)CC[C@H](N2CC(CC(=O)NCc3cccc4[nH]ccc34)(NC(=O)c3cc(-c4ccc(F)cc4F)on3)C2)CC1` [Example 1.100] registered an IC50 of under 5 nM.

`COc1ccc(F)cc1C(C)(C)NC(=O)CC1(NC(=O)c2nnc(-c3ccc(F)cc3F)s2)CN([C@H]2CC[C@](C)(O)CC2)C1` [Example 1.017] registered an IC50 of 5 to 100 nM.

On to `CC(C)(NC(=O)CC1(NC(=O)c2cc(-c3ccc(F)cc3F)on2)CN([C@H]2CC[C@](C)(O)CC2)C1)c1ccncn1` [Example 1.181], for which the IC50 fell in the range of 5 to 100 nM.

With `COc1cccc(C(C)(C)NC(=O)CC2(NC(=O)c3cc(-c4ccc(F)cc4F)on3)CN(C3CCC4(CC3)COC4)C2)c1` [Example 1.183], the IC50 is 5 to 100 nM.

The compound `CC(C)(NC(=O)CC1(NC(=O)c2cc(-c3ccc(F)cc3F)on2)CN([C@H]2CC[C@](C)(O)CC2)C1)c1cc(F)ccc1F` [Example 1.236] showed an IC50 of under 5 nM.

Compound `Cn1cc(C(C)(C)NC(=O)CC2(NC(=O)c3cc(-c4ccc(F)cc4F)on3)CN(C3CCCCC3)C2)cn1` [Example 1.273] yielded an IC50 of 5 to 100 nM.

`O=C(CC1(NC(=O)c2cc(-c3ccc(F)cc3F)on2)CN(C2CCCCC2)C1)N[C@H](C(=O)O)c1ccccc1` [Example 1.283] yielded an IC50 of 1000 to 20000 nM.

`Cc1cc(C)nc(C(C)(C)NC(=O)CC2(NC(=O)c3noc(-c4ccc(F)cc4F)c3C)CN(C3CCCCC3)C2)n1` [Example 1.341] came in with an IC50 of 1000 to 20000 nM.

For `COc1cccnc1C(C)(C)NC(=O)CC1(NC(=O)c2nnc(-c3ccc(F)cc3F)s2)CN([C@H]2CC[C@](C)(O)CC2)C1` [Example 1.009], the IC50 lay in the range of 5 to 100 nM.

For the compound `C[C@]1(O)CC[C@H](N2CC(CC(=O)NCc3c[nH]c4ccccc34)(NC(=O)c3cc(-c4ccc(F)cc4F)on3)C2)CC1` [Example 1.279], the IC50 fell in the range of 5 to 100 nM.

Take `CC(C)(NC(=O)CC1(NC(=O)c2cc(-c3ccc(F)cc3F)on2)CN(C2CCC3(CCC3)CC2)C1)c1ccccn1` [Example 1.296]: the IC50 lay in the range of 100 to 1000 nM.

`CC(C)(NC(=O)CC1(NC(=O)c2cc(-c3ccc(F)cc3F)on2)CN(C2CCCCC2)C1)c1cccc(C(F)(F)F)c1` [Example 1.271] yielded an IC50 of 100 to 1000 nM.

In turn, `Cc1cc(C(C)(C)NC(=O)CC2(NC(=O)c3cc(-c4ccc(F)cc4F)on3)CN([C@H]3CC[C@](C)(O)CC3)C2)cc(C)n1` [Example 1.112] registered an IC50 of 5 to 100 nM.

As to `Cc1cc(C(C)C)cc(C(C)(C)NC(=O)CC2(NC(=O)c3nnc(-c4ccc(F)cc4F)s3)CN([C@H]3CC[C@](C)(O)CC3)C2)n1` [Example 1.347], the IC50 is 100 to 1000 nM.

The compound `CC(C)(NC(=O)CC1(NC(=O)c2cc(-c3ccc(F)cc3F)on2)CN([C@H]2CC[C@@](C)(O)CC2)C1)c1ccccn1` [Example 1.034] gave an IC50 of 100 to 1000 nM.

Consider `CC(C)(NC(=O)CC1(NC(=O)c2cc(-c3ccc(F)cc3F)on2)CN([C@H]2CC[C@@](C)(O)CC2)C1)c1cccc(C#N)c1` [Example 1.172], for which the IC50 is under 5 nM.

Take `C[C@]1(O)CC[C@H](N2CC(CC(=O)NCc3ccccc3)(NC(=O)c3cc(-c4ccc(F)cc4F)on3)C2)CC1` [Example 1.128]: the IC50 was 1000 to 20000 nM.

With `CC(C)(NC(=O)CC1(NC(=O)c2cn(-c3ccc(F)cc3F)nn2)CN([C@H]2CC[C@](C)(O)CC2)C1)c1cccc(Cl)c1` [Example 1.067], the IC50 was 5 to 100 nM.

For `COc1ccc(C(C)(C)NC(=O)CC2(NC(=O)c3cc(-c4ccc(F)cc4F)on3)CN([C@H]3CC[C@@](C)(O)CC3)C2)c(F)c1` [Example 1.212], the IC50 was in the range of 5 to 100 nM.

Take `COc1cc(OC)nc(C(C)(C)NC(=O)CC2(NC(=O)c3nnc(-c4ccc(F)cc4F)s3)CN([C@H]3CC[C@](C)(O)CC3)C2)c1` [Example 1.342]: the IC50 was 5 to 100 nM.

Regarding `CC(C)(NC(=O)CC1(NC(=O)c2cc(-c3ccc(F)cc3F)on2)CN([C@H]2CC[C@](C)(O)CC2)C1)c1cc(Cl)ccc1F` [Example 1.133], the IC50 was under 5 nM.
